Patent US20240368147A1, “CYCLIN K DEGRADER” (ADLAI NORTYE BIOPHARMA CO., LTD., priority 2021, published 2024)

Experiments:
[1] = molecular target: T1, Cyclin K (CCNK) (Homo sapiens, UniProt O75909+Q9NYV4); assay: Western blot detection of Cyclin K (CCNK) degradation; assay type: cell-based; conditions: HEK293 cells, compared with the control; for degradation of Cyclin K (FIG. 2): 1 μM, 6 hours
T1 construct: total cell protein was extracted with RIPA cell lysis buffer; host or cells: HEK293
Description: Western Blot Detection of Cyclin K (CCNK) Degradation
Harvest HEK1293 cells (ATCC, cat #CRL-1573) and adjust the cell density to 1×10^6 cells per ml. Pour 1 ml of cell suspension per well into a 6-well plate and culture overnight. Take the compound stock solution and dilute it to the appropriate concentration with DMSO. Add the diluted compound into the cell wells using culture medium at a ratio of 1:1000 to ensure that the DMSO concentration in each well is 0.1%. At the same time, negative control wells were set, that is, complete culture medium containing 0.1% DMSO. After the compounds were treated and fixed at the concentrations shown in the figure and for different times, total cell protein was extracted with RIPA cell lysis buffer (Beyotime, cat #P0013B) added with PMSF. After protein quantification using the BCA protein quantification kit (Thermo Fisher, cat #A53225), each sample was subjected to subsequent SDS-PAGE and western blot experiments at a loading volume of 40 μg. The specific conditions are: after running the gel at 120V constant pressure for 90 minutes, transfer the film at a constant current of 320 mA for 60 minutes. Carry out antibody incubation according to the recommended dilution ratio and incubation time of the antibody. The information of the antibodies used in the experiment is as follows: Anti-GAPDH antibody (abcam, cat #ab9485), Anti-Cyclin K antibody (abcam, cat #ab85854), Goat anti-Rabbit IgG (H+L) Cross-Adsorbed Secondary Antibody, HRP (invitrogen, cat #G-21234). ECL luminescence solution (Thermo Fisher, cat #32209) was used to develop color and luminescence. A gel imaging system was used to analyze the final results.
According to the above detection method, some compounds of the present disclosure were evaluated.

[2] = system: HGC27 (Human Gastric Cancer Cell); assay: HGC27 cell growth inhibition (CellTiter-Glo); assay type: cell-based; conditions: Homo sapiens, HGC-27, 24 h, HGC27 cells, 24 hours, CellTiter-Glo; read-out: HGC27 CTG IC50
Description: Biological Activity Detection of HGC27 (Human Gastric Cancer Cell) Cell Growth Inhibition
This detection method is used to evaluate the cellular level biological activity of the compounds of the present disclosure.
Harvest HGC27 cells (purchased from Chinese Academy of Sciences), resuspend in complete culture medium and adjust the cell density to 0.2×10^6 cells per ml. Add 100 μL of cell suspension to each well into a 96-well plate and incubate overnight in a 37° C., 5% CO2 incubator. Prepare the compound to be tested and add it to the cell plate so that the maximum concentration of the compound is 10 μM. Set 8 concentration points according to 3-fold dilution. At the same time, set up a 100% inhibition control well, that is, a well with no cells added and only an equal volume of complete culture medium; and a 0% inhibition control well, that is, a cell well with 0.1% DMSO added. The above cell plate was cultured at 37° C. and 5% CO2 for 24 hours. Take out the cell culture plate, add 25 μl CellTiter-Glo® Luminescent Cell Viability reagent (promega cat #G7573) to each well, incubate in the dark for 10 minutes, transfer 100 μL to a white plate, and use Molecular Devices SpectraMax i3 to detect chemiluminescence. Data processing uses the following formula to calculate the inhibition rate: compound inhibition rate=(0% inhibition of control well signal−compound treatment well signal)/(0% inhibition of control well signal−100% inhibition of control well signal)*100%. The calculated data were fitted using graphpad prism software with four parameters and the corresponding IC50 was calculated.
According to the above detection method, the biological activity of the compound of the present disclosure was evaluated at the cellular level. Wherein, CR8 is a literature compound, which was purchased from Shanghai Bide Pharmaceutical.

T1 sequence (O75909 whole entry): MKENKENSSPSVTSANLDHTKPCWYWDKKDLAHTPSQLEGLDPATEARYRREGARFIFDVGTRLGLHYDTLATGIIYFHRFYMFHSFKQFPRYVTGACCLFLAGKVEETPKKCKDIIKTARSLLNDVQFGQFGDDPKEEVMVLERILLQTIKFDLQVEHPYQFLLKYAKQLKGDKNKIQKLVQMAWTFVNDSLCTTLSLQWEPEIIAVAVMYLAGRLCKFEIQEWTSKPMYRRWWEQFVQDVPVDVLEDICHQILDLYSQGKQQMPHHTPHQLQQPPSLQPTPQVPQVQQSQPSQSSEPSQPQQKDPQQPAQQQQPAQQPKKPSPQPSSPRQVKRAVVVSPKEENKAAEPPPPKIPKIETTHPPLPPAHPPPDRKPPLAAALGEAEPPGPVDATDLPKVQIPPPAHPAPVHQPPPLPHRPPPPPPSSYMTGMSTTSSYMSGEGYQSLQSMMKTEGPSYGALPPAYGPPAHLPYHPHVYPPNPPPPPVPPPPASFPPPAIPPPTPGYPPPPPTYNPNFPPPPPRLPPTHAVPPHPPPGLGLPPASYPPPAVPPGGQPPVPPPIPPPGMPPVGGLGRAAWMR
T1 sequence (Q9NYV4 whole entry): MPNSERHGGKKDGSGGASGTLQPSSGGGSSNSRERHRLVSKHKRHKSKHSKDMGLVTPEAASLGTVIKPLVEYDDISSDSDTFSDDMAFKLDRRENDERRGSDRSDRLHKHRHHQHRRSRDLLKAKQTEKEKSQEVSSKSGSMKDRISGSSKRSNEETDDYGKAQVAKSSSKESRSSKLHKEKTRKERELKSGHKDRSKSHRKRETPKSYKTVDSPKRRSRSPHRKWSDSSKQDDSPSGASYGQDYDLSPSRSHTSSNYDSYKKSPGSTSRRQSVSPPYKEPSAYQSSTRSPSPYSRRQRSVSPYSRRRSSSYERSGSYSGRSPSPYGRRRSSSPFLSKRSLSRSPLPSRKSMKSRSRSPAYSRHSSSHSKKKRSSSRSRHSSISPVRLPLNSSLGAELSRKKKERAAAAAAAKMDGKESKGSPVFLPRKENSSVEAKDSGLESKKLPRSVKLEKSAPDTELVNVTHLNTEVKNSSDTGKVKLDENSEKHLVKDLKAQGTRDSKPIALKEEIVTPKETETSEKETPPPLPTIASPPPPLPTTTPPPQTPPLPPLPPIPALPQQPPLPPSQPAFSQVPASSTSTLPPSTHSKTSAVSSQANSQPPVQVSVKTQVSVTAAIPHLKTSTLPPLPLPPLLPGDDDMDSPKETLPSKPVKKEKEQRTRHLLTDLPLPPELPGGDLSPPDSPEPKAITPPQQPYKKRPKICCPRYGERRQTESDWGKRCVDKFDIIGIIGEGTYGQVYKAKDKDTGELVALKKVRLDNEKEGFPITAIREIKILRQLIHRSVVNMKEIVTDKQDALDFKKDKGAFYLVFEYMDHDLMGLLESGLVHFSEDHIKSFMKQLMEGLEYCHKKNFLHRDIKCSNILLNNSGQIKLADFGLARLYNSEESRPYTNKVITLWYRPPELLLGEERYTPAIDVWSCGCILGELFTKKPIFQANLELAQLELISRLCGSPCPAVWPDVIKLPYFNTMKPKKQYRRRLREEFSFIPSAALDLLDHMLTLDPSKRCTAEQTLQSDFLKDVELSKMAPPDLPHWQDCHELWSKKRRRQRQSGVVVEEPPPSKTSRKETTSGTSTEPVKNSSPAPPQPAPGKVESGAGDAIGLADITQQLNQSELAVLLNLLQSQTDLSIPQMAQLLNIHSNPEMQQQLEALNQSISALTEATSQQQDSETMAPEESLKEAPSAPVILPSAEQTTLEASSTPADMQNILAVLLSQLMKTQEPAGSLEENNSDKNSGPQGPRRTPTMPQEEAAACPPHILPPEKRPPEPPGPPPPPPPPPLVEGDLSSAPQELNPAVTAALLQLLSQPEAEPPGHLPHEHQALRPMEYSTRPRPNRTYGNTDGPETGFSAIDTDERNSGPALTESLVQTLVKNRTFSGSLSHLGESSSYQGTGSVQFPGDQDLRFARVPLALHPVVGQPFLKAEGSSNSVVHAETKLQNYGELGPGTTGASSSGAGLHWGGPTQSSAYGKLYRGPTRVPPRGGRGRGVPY
T1 sequence (Q16531 whole entry partner): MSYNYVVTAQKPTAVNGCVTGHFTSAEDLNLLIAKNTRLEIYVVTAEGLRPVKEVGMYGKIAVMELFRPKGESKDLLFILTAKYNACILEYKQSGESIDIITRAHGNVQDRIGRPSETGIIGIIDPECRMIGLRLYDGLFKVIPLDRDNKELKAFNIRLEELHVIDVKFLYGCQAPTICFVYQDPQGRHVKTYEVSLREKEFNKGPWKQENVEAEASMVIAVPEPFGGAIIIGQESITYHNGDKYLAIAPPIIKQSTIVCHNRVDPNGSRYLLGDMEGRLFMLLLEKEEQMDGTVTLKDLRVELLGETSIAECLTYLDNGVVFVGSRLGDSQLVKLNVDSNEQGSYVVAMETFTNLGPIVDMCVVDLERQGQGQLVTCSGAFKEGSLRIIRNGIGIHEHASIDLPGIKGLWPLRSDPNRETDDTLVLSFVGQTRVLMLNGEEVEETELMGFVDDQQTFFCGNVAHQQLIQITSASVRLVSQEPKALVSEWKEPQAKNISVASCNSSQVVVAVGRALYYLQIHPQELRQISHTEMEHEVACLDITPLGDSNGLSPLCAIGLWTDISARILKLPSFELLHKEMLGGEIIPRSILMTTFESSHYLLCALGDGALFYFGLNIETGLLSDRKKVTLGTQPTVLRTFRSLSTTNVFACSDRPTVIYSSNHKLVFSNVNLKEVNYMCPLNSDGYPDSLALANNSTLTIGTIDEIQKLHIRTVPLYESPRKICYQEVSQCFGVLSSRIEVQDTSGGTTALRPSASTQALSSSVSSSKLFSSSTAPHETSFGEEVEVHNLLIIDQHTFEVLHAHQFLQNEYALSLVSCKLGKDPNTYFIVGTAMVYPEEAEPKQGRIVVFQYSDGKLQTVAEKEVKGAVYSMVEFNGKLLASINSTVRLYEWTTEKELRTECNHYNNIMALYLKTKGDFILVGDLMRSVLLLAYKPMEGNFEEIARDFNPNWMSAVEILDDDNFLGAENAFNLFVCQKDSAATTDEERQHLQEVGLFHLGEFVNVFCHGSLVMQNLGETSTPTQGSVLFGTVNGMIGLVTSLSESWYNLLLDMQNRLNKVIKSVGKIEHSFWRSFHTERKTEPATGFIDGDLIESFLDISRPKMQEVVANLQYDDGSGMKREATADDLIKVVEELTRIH

Row | IC50 [2] [µM] | SMILES | degradation of Cyclin K (FIG. 1) ([1]; 0.1, 0.3, 1 μM, 6 h, 14 h, 24 h) | degradation of Cyclin K (FIG. 2) [1]
1 | 0.385 | FC(F)(F)c1cnc(NCc2ccc(-c3ccccn3)cc2)nc1OC1COC1 [Compound 1] | significantly induce the degradation of Cyclin K | –
2 | – | Clc1cnc(NCc2ccc(-c3ccccn3)cc2)nc1OC1COC1 [Compound 3] | – | significantly induce the degradation of Cyclin K
3 | – | FC(F)(F)c1cnc(NCc2ccc(-c3ccccn3)cn2)nc1OC1COC1 [Compound 4] | – | significantly induce the degradation of Cyclin K
4 | – | FC(F)(F)c1cnc(NCc2ccc(-c3cccnc3)cc2)nc1OC1COC1 [Compound 5] | – | significantly induce the degradation of Cyclin K
5 | – | FC(F)(F)c1cnc(NCc2ccc(-c3ccccn3)cc2)nc1NC1COC1 [Compound 8] | – | significantly induce the degradation of Cyclin K
6 | 0.307 | CS(=O)(=O)c1cncc(-c2nc(NCc3ccc(-c4ccccn4)cc3)ncc2C(F)(F)F)c1 [Compound 13] | – | significantly induce the degradation of Cyclin K
7 | 0.281 | OCc1cccc(-c2ccc(CNc3ncc(C(F)(F)F)c(OC4COC4)n3)cc2)n1 [Compound 18] | – | significantly induce the degradation of Cyclin K
